Data taken from patent publication US20160286800A1, “STABILIZED COMPOSITION OF AN OXIDIZER AND METAL IONS, METHOD AND USE FOR IMPROVING DISEASE CONTROL, AND KIT FOR PREPARING SAID COMPOSITION” (AGRI-NÉO INC., priority 2013, published 2016).
Entries after “also recorded” stand apart in the source; their conditions may differ. Read-outs that look alike come from different tables or passages of the source.

Experiments:
[1] = pH of the mixtures over time; format: physicochemical; details: Trt 1 pH (0.1%)
Procedure: (§1) Then mixtures #1 to #5 were prepared as per below table:
(§2) Mixtures were prepared at room temperature (around 20° C.) as per the following table: […]

[2] = Peracetic acid concentration in aqueous solution over time, Lamotte peracetic acid test kit (code 7191-01); format: physicochemical; details: with or without copper hydroxide / metal ions
Description: Those skilled in the art know how to monitor levels of peracetic in solutions. For instance, it is known to use iodometric titration (F. P. Greenspan and D. G. MacKellar, 1948, Anal. Chem., 20, 1061) or to use analytical test strips. Suitable test strips include those manufactured by Merck and which are currently available under two different formats (i.e. 5-50 ppm and 100-500 ppm). These test strips provide a rapid, convenient semi-quantitative method of determining peracetic levels. LaMotte Company (Chestertown, Md., USA) also provides a test kit (code 7191-01) for titrating peracetic acid.
Peracetic acid was generated by admixing with water a powdered product which is hereinafter called ATO CIDE. More particularly, 2 grams of the powdered product identified hereinafter under the name ATO CIDE was added and mixed for 10 minutes with in 1 liter of water, to give a solution of 2 g/L ATO CIDE. ATO CIDE is a powdered mixture consisting of:
(§3) Then, 100 mL of the above-mentioned solution of peracetic acid (i.e ATO CIDE solution) was mixed for 5 minutes with 0.1 g of a powdered product sold under the trademark PARASOL WG®. PARASOL WG® is a powdered product comprising 50% elemental copper as copper hydroxide.
as §3, with “Then, a” for “Then,”, “0.2 mL of a complexing agent (PBTCA) until the sequestering agent was dissolved completely, and then” for “with”, “WG® is added and dissolved with the resulting mixture.” for “WG®.”
Then mixtures were prepared as per below table:
as §1, §2

strawberry [3] = assay: Phytotoxicity to strawberry (statement); details: applied individually to strawberry; stated, no data shown
strawberry [4] = details: in vivo

With OP(O)O [Trt 1, Phosphorous acid] the pH ([1]; Example 15, 24 hrs, Trt 2 pH (0.2%)) was 2.53, the pH ([1]; Example 15, 48 hrs, Trt 2 pH (0.2%)) was 2.80 and the pH ([1]; Example 15, 120 hrs, Trt 2 pH (0.2%)) was 2.90. It also gave a pH ([1]; Example 15, 148 hrs, Trt 2 pH (0.2%)) of 2.85, a pH ([1]; Example 15, 172 hrs, Trt 2 pH (0.2%)) of 2.80 and a pH ([1]; Example 15, room temperature, Time zero (Trt 3-5: after the additions)) of 2.80.

With O=P(O)(O)O [Phosphoric acid, phosphoric acid] the “effect on stability of peracetic acid (conclusion in words)” value (from here on “effect on stability of peracetic acid”) [2] was “prevented peracetic acid from being decomposed” and the “effect on stability of peracetic acid” value ([2]; listed as phosphoric acid) was “prevented the decomposition of peracetic acid by metal ions”.

For OB(O)O [Boric acid, boric acid], the “effect on stability of peracetic acid” value [2] was “stabilizes PERACETIC ACID in solution for a longer period of time; also recorded: not as good as phosphoric acid in chelating copper hydroxide”.

For OP(O)O [Phosphorous acid, phosphorous acid], the phytotoxicity (strawberry [3]) was “phytotoxic” and the “effect on stability of peracetic acid” value [2] was “stabilizes the peracetic acid very well”.

With copper the phytotoxicity (strawberry [4]) was “phytotoxic”.

In the case of NS(=O)(=O)O [Sulfamic acid, sulfamic acid], the “effect on stability of peracetic acid” value [2] is reported as “prevented peracetic acid from being decomposed”.
